Laboratory results from patent US20040005537A1, “Method of identifying toxic agents using differential gene expression” (priority 2000, published 2004).

Assays:
rat heart tissue = test: GENECALLING differential gene expression analysis after dosing of serotonin modulating agents; format: in vivo, Sprague Dawley rats
Procedure, shortened: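 GENECALLING profiling of cDNA from total RNA, keeping gene fragments modulated beyond ±1.5-fold. Tissue collected 24 h after final dosing of serotonin modulating agents; control rats received sterile water or canola oil.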

[1] = grouping used to generate the distinguishing gene profiles; cited from earlier work

## CNS(=O)(=O)Cc1ccc2[nH]cc(CCN(C)C)c2c1 [sumatriptan]
Rat heart tissue; CARDIOTOX 72
  Effects on Transcription Level: Novel gene fragment, 445 bp, 85% SI to human skeletal muscle alpha 2 actinin [M86406]: 5.7 fold
Rat heart tissue; CARDIOTOX 73
  Effects on Transcription Level: Novel gene fragment, 246 bp, 89% SI to mouse ponsin-1 [AF078667]: −3.2 fold
Rat heart tissue; CARDIOTOX 74
  Effects on Transcription Level: Novel gene fragment, 126 bp, 77% SI to human DNA sequence from cosmid V311G7, between markers DXS366 and DXS87 on chromosome X [Z69304]: +2.1 fold
Rat heart tissue; CARDIOTOX 75
  Effects on Transcription Level: Novel gene fragment, 370 bp: −2.7 fold
Rat heart tissue; CARDIOTOX 76
  Effects on Transcription Level: Novel gene fragment, 337 bp, 78% SI to novel human protein AHNAK [M80899]: −4.3 fold
Rat heart tissue; CARDIOTOX 77
  Effects on Transcription Level: Novel gene fragment, 100 bp, 93% SI to human KIAA0750 protein [ABO18293]: −9.3 fold
Rat heart tissue; CARDIOTOX 78
  Effects on Transcription Level: Novel gene fragment, 44 bp: −5.4 fold
Rat heart tissue; CARDIOTOX 79
  Effects on Transcription Level: Novel gene fragment, 698 bp, 93% SI to mouse plenty-of-prolines-101 [AF062655]: −2.3 fold
Rat heart tissue; CARDIOTOX 80
  Effects on Transcription Level: Novel gene fragment, 660 bp, 84% SI to mouse membrane protein TMS-2 [AF181685]: −3.8 fold
Rat heart tissue; CARDIOTOX 81
  Effects on Transcription Level: Novel gene fragment, 115 bp: −4.1 fold
Rat heart tissue; CARDIOTOX 82
  Effects on Transcription Level: Novel gene fragment, 294 bp, 95% SI to mouse Ndr1 related protein Ndr2 [AB033921]: −2.0 fold
Rat heart tissue; CARDIOTOX 83
  Effects on Transcription Level: Novel gene fragment, 198 bp: +2.5 fold
Rat heart tissue; CARDIOTOX 84
  Effects on Transcription Level: Novel gene fragment, 730 bp, 86% SI to mouse E800 [Y10968]: −2.8 fold
Rat heart tissue; CARDIOTOX 85
  Effects on Transcription Level: Novel gene fragment, 294 bp, 98% SI to cysteine conjugate beta-lyase [S61960]: −2.8 fold
Rat heart tissue; CARDIOTOX 86, GenBank A1243266
  Effects on Transcription Level: Aconitase: −1.9 fold
Rat heart tissue; CARDIOTOX 87, GenBank M17422
  Effects on Transcription Level: Ribosomal protein L7: +2.5 fold
Rat heart tissue; CARDIOTOX 88, GenBank X51706
  Effects on Transcription Level: Ribosomal protein L9: +10.1 fold
Rat heart tissue; CARDIOTOX 89, GenBank X53504
  Effects on Transcription Level: Ribosomal protein L12: −1.5 fold
Rat heart tissue; CARDIOTOX 90, GenBank V01270
  Effects on Transcription Level: 18S, 5.8S, and 28S ribosomal RNA's: +5 fold
Rat heart tissue; CARDIOTOX 91, GenBank U10357
  Effects on Transcription Level: Pyruvate dehydrogenase kinase 2 (PDK2): −6.10 fold
Rat heart tissue; CARDIOTOX 92, GenBank J03179
  Effects on Transcription Level: D-Binding Protein (DBP): −1.4 fold
Rat heart tissue; CARDIOTOX 93, GenBank L03294
  Effects on Transcription Level: Lipoprotein lipase: −2.2 fold
Rat heart tissue; CARDIOTOX 94, GenBank X02610
  Effects on Transcription Level: Non-neuronal enolase: +3.5 fold
Rat heart tissue; CARDIOTOX 95, GenBank L10669
  Effects on Transcription Level: Glycogen phosphorylase (muscle isozyme): −2.6 fold
Rat heart tissue; CARDIOTOX 96, GenBank X14209
  Effects on Transcription Level: Cytochrome c oxidase subunit IV: +10.0 fold
Rat heart tissue; CARDIOTOX 97, GenBank M17083
  Effects on Transcription Level: Alpha-globin: +3.8 fold
Rat heart tissue; CARDIOTOX 98, GenBank X06701
  Effects on Transcription Level: Beta-globin: +3.11 fold
Rat heart tissue; CARDIOTOX 99, GenBank AF197916
  Effects on Transcription Level: Myoglobin: +4.7 fold
Rat heart tissue; CARDIOTOX 100, GenBank L38717
  Effects on Transcription Level: Titin: −2.1 fold
Rat heart tissue; CARDIOTOX 101, GenBank V01218
  Effects on Transcription Level: Skeletal muscle actin: −18.3 fold
Rat heart tissue; CARDIOTOX 102, GenBank M11851
  Effects on Transcription Level: Myosin light chain 2 (MLC2): +2.2 fold
Rat heart tissue; CARDIOTOX 103, GenBank X15938
  Effects on Transcription Level: Alpha cardiac myosin heavy chain: −3.5 fold
Rat heart tissue; CARDIOTOX 104, GenBank U77354
  Effects on Transcription Level: Troponin I: +1.8 fold
Rat heart tissue; CARDIOTOX 105, GenBank AF001334
  Effects on Transcription Level: Cardiac calsequestrin: −2.9 fold
Rat heart tissue; CARDIOTOX 106, GenBank M16975
  Effects on Transcription Level: Sulfated glycoprotein 2: −1.6 fold
Rat heart tissue; CARDIOTOX 107, GenBank AB000507
  Effects on Transcription Level: Aquaporin 7: +1.5 fold
Rat heart tissue; CARDIOTOX 108, GenBank X97831
  Effects on Transcription Level: Carnitine/acylcarnitine carrier protein: −2.5 fold
Rat heart tissue; CARDIOTOX 109, GenBank U40628
  Effects on Transcription Level: Glu-Pro Dipeptide Repeat: −6.2 fold
Rat heart tissue; CARDIOTOX 110, GenBank X54737
  Effects on Transcription Level: Cystatin beta: +2.5 fold
Rat heart tissue; CARDIOTOX 111
  Effects on Transcription Level: Novel gene fragment, 593 bp, 90% SI to human calcineurin B-like protein [Z08983]: +1.10 fold
Rat heart tissue; CARDIOTOX 112
  Effects on Transcription Level: Novel gene fragment, 179 bp, 88% SI to human titin [X90568]: −3.1 fold
Rat heart tissue; CARDIOTOX 113
  Effects on Transcription Level: Novel gene fragment, 700 bp, 91% SI to mouse periplakin (PPL) [AF116523]: +2.5 fold
Rat heart tissue; CARDIOTOX 114, GenBank J05029
  Effects on Transcription Level: Long chain acyl-CoA dehydrogenase (LCAD): +1.7 fold
Rat heart tissue; CARDIOTOX 115, GenBank M19936
  Effects on Transcription Level: Sulfated glycoprotein 1 (SGP-1): −1.8 fold
Rat heart tissue; CARDIOTOX 116, GenBank M11670
  Effects on Transcription Level: Catalase: +2.1 fold
Rat heart tissue; CARDIOTOX 117, GenBank AF084186
  Effects on Transcription Level: Alpha-fodrin (A2A) (Nonerythroid spectrin alpha subunit): −1.7 fold
Rat heart tissue; CARDIOTOX 118, GenBank M27902
  Effects on Transcription Level: Cardiac specific sodium channel alpha-subunit: −2.0 fold
Rat heart tissue; CARDIOTOX 119, GenBank U40628
  Effects on Transcription Level: Glu-Pro Dipeptide Repeat: +4.2 fold
Rat heart tissue; CARDIOTOX 120
  Effects on Transcription Level: Novel gene fragment, 200 bp, 64% SI to human KIAA0733 protein [AB018316]: −1.6 fold
Rat heart tissue; CARDIOTOX 121, GenBank L42855
  Effects on Transcription Level: RNA polymerase II transcription factor SIII (p18 subunit): +2.1 fold
Rat heart tissue; CARDIOTOX 122, GenBank L01702
  Effects on Transcription Level: Protein-tyrosine phosphalase (LRP): +1.8 fold
Rat heart tissue; CARDIOTOX 123, GenBank U25264
  Effects on Transcription Level: Skeletal muscle selenoprotein W (SelW): −1.6 fold
Rat heart tissue; CARDIOTOX 124, GenBank X15635
  Effects on Transcription Level: Sarcoplasmic reticulum 2+-Ca-ATPase: −2.1 fold
Rat heart tissue; CARDIOTOX 125, GenBank X53377
  Effects on Transcription Level: Ribosomal protein S7: +1.7 fold
Rat heart tissue; CARDIOTOX 126, GenBank X05300
  Effects on Transcription Level: Ribophorin I: +2.0 fold
Rat heart tissue; CARDIOTOX 127, GenBank X15939
  Effects on Transcription Level: Beta cardiac myosin heavy chain: +2.2 fold
Rat heart tissue; CARDIOTOX 128, GenBank L12380
  Effects on Transcription Level: ADP-ribosylation factor 1: +1.3 fold
Rat heart tissue; CARDIOTOX 129, GenBank U04942
  Effects on Transcription Level: Laminin receptor: +2.6 fold
Rat heart tissue; CARDIOTOX 130
  Effects on Transcription Level: Novel gene fragment, 206 bp, 89% SI to human seryl-tRNA synthetase [X91257]: +1.8 fold
Rat heart tissue; CARDIOTOX 131, GenBank X86086
  Effects on Transcription Level: Annexin VI: −09.0 fold
Rat heart tissue; CARDIOTOX 132
  Effects on Transcription Level: Novel gene fragment, 325 bp, 90% SI to mouse N-RAP [U76618]: +1.7 fold
Rat heart tissue; LD10 dose for three days
  Effects on Transcription Level: Novel gene fragment, 61 bp (CARDIOTOX 134): −3 fold
  Effects on Transcription Level: Novel gene fragment, 337 bp (CARDIOTOX 133): −2.1 fold
  Effects on Transcription Level: Novel gene fragment, 378 bp, 88% SI to human coatomer protein (COPA) [U24105] (CARDIOTOX 138): −2.1 fold
Rat heart tissue; LD10 dose for three days, GenBank D16479
  Effects on Transcription Level: Long chain 3-ketoacyl-CoA thiolase (CARDIOTOX 136): −1.5 fold
Rat heart tissue; LD10 dose for three days, GenBank D87671
  Effects on Transcription Level: TATA-binding protein interacting protein 120 (TIP120) (CARDIOTOX 135): +2.4 fold
Rat heart tissue; LD10 dose for three days, GenBank D88250
  Effects on Transcription Level: Serine protease (CARDIOTOX 139): +1.7 fold
Rat heart tissue; LD10 dose for three days, GenBank M34043
  Effects on Transcription Level: Thymosin beta-4 (CARDIOTOX 137): +1.4 fold
Rat heart tissue; LD10 dose for three days, GenBank X86086
  Effects on Transcription Level: Annexin VI (no CARDIOTOX assignment given): −5.1 fold
[1]
  classification as cardiotoxic or noncardiotoxic serotonin modulating agent: noncardiotoxic
